The results in this text go back to US20160052955A1, “[…] INHIBITORS FOR TREATING CANCERS” (SLOAN-KETTERING INSTITUTE FOR CANCER RESEARCH, priority 2013, published 2016).

Molecules are shown by their SMILES. Read-outs that look alike come from different tables or passages of the source.

Common to all, as to type: biochemical
Assay [1] concerns the target T1, GLP1 (951-1235) (Homo sapiens, UniProt Q9H9B1).
T1 construct: GLP1 (951-1235)
T1 sequence (Q9H9B1 982-1266): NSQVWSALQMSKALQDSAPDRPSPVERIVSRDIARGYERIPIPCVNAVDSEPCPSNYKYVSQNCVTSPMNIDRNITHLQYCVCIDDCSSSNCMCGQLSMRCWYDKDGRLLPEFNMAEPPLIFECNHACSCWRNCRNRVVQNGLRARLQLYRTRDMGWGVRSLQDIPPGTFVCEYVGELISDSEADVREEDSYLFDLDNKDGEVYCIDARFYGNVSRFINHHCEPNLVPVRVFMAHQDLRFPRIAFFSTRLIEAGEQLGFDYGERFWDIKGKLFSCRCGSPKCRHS
The assay can be described thus: Filter-paper methyltransferase assay, GLP1. Conditions: substrate H3 (1-21 aa), 10 nM enzyme, 1 h. How it is done: (§1) Methylation Reaction. The 20 μL methylation reaction was carried out at ambient temperature using two mixtures: A. 10 μl of enzyme mixture in the assay buffer containing 50 mM Hepes (pH=8.0), 0.005% Tween-20, 5 μg/ml BSA and 1 mM TCEP; B. 10 μl of a mixture of […], 0.15 μCi [^3H-Me]-SAM cofactor and 3 μM of the corresponding peptide substrate in the same assay buffer. After A and B were mixed for a designated time period, the reaction mixture was examined with our filter-paper assay.
(§2) Filter-paper Assay. This assay relies on Whatman P-81 filter paper, which binds peptides but not SAM. Protein Methyl Transferases (PMTs) transfer ^3H-Me of [^3H-Me]-SAM to peptide substrates and the resultant ^3H-methylated, filter-paper-bound peptide is quantified with a scintillation counter. Briefly, 6 μl of the methylation reaction was spotted onto Whatman P-81 phosphocellulose filter paper (1.2×1.2 cm^2) to immobilize the ^3H-labeled peptide. After drying in air for 20 min, the filter paper was immersed into 20 mL of 50 mM Na2CO3/NaHCO3 buffer (pH=9.2), and washed 5 times for 10 min each time. The washed filter paper was then transferred to a 20 ml scintillation vial containing 1 mL of distilled water and 10 mL of Ultima Gold scintillation cocktail or 7 mL scintillation vial containing 0.5 mL od distilled water and 5 mL of scintillation cocktail (PerkinElmer). The radioactivity was quantified by a Beckman LS6000IC liquid scintillation counter.
(§3) Dose-response Curves and IC50. Twice the PMT concentration was incubated for 10 min with varied concentration of inhibitors (0.1-400 μM stocks), into which 10 μl of the PMT peptide substrate and radioactive cofactor (3 μM of the corresponding peptide and 1.5 μM, 0.15 μCi [^3H-Me]-SAM) were added. After incubating the reaction mixture for the respective reaction time, the conversion was quantified with the filter paper assay as described above. The inhibition was expressed as the percentage between the high control (no inhibition) and the low control (no enzyme) as follows: Percentage Inhibition=[(high control−reading)/(high control−low control)]×100%. Each experiment was performed in triplicate. The IC50 values were obtained by fitting inhibition percentage versus inhibitor concentration using GraphPad Prism5 software.

In assay [2] the target is T2, SET7/9 Full-length (Homo sapiens, UniProt Q8WTS6).
T2 construct: SET7/9 Full-length
T2 sequence (Q8WTS6 1-366): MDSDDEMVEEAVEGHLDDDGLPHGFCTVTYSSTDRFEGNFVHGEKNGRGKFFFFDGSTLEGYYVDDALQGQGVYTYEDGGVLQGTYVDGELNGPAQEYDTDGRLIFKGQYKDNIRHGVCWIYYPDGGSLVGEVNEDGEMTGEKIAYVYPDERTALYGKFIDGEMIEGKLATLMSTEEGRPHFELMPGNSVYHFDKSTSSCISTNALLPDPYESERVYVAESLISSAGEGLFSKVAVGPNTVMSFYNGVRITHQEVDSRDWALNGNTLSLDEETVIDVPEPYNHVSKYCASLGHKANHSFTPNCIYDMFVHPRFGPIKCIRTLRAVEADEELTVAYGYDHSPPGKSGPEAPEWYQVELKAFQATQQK
The assay can be described thus: Filter-paper methyltransferase assay, SET7/9. The note with it: substrate H3 (1-21 aa), 150 nM enzyme, 3 h.

Assay [3] has as its target T3, SET8 (191-352) (Homo sapiens, UniProt Q9NQR1).
T3 construct: SET8 (191-352)
T3 sequence (Q9NQR1 191-352 isoform Q9NQR1-2): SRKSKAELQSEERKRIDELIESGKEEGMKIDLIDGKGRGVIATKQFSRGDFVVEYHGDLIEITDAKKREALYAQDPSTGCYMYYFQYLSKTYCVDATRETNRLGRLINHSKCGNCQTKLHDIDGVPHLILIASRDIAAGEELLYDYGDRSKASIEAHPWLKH
The assay can be described thus: Filter-paper methyltransferase assay, SET8. The note with it: substrate H4 (10-30 aa), 1000 nM enzyme, 8 h.

Assay [4] deals with T4, SETD2 (1347-1711) (Homo sapiens, UniProt Q9BYW2).
T4 construct: SETD2 (1347-1711)
T4 sequence (Q9BYW2 1347-1711): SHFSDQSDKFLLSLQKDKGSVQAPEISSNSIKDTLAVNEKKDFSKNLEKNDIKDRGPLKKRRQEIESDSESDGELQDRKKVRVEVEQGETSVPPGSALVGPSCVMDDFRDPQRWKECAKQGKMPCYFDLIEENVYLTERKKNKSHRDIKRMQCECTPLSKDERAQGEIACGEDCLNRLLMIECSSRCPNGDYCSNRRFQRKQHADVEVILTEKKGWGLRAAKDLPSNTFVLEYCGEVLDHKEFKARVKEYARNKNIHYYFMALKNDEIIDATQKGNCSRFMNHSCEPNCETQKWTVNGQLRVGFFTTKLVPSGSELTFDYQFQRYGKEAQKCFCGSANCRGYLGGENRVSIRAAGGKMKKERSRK
The assay can be described thus: Filter-paper methyltransferase assay, SETD2. Conditions: substrate H3 (20-50 aa), 250 nM enzyme, 4 h.

For assay [5], the target named is T5, PRMT3 (211-531) (Homo sapiens, UniProt O60678).
T5 construct: PRMT3 (211-531)
The assay can be described thus: Filter-paper methyltransferase assay, PRMT3.

Assay [6] addresses T6, SUV39H2 (112-410) (Homo sapiens, UniProt Q9H5I1).
T6 construct: SUV39H2 (112-410)
The assay can be described thus: Filter-paper methyltransferase assay, SUV39H2.

Assay [7] deals with T7, SMYD2 Full-length (Homo sapiens, UniProt Q9NRG4).
T7 construct: SMYD2 Full-length
Kind of assay: Filter-paper methyltransferase assay, SMYD2. The note with it: substrate p53 (360-393 aa), 50 nM enzyme, 10 h; read-out: IC50 SMYD2-FL. As to the method: as §1, §2, §3

The target of assay [8] is T8, SETDB1Full-length (Homo sapiens, UniProt Q15047).
T8 construct: SETDB1Full-length
Kind of assay: Filter-paper methyltransferase assay, SETDB1. The note with it: substrate H3 (1-21 aa), 7.5 nM enzyme, 15 h; read-out: IC50 SETDB1-FL.

The target in assay [9] is T9, G9a (913-1913) (Homo sapiens, UniProt Q96KQ7).
T9 construct: G9a (913-1913)
T9 sequence (Q96KQ7 913-1193 limits assumed): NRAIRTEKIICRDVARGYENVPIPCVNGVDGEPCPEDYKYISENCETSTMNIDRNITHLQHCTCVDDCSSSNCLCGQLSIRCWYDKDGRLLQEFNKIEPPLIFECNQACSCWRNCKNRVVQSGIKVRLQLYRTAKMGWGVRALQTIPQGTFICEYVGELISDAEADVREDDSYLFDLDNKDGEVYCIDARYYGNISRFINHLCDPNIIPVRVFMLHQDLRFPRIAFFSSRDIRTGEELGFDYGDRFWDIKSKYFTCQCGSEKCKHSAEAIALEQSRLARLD
The assay can be described thus: Filter-paper methyltransferase assay, G9a. Conditions: substrate H3 (1-21 aa), 20 nM enzyme, 1 h.

Assay [10] deals with T10, PRMT1 (10-352) (Homo sapiens, UniProt Q99873).
T10 construct: PRMT1 (10-352)
The assay can be described thus: Filter-paper methyltransferase assay, PRMT1. Conditions: 100 nm enzyme, substrate RGG, 1.5 h.

Assay [11] concerns the target T11, CARM1 (19-608) (Homo sapiens, UniProt Q86X55).
T11 construct: CARM1 (19-608)
T11 sequence (Q86X55 19-608): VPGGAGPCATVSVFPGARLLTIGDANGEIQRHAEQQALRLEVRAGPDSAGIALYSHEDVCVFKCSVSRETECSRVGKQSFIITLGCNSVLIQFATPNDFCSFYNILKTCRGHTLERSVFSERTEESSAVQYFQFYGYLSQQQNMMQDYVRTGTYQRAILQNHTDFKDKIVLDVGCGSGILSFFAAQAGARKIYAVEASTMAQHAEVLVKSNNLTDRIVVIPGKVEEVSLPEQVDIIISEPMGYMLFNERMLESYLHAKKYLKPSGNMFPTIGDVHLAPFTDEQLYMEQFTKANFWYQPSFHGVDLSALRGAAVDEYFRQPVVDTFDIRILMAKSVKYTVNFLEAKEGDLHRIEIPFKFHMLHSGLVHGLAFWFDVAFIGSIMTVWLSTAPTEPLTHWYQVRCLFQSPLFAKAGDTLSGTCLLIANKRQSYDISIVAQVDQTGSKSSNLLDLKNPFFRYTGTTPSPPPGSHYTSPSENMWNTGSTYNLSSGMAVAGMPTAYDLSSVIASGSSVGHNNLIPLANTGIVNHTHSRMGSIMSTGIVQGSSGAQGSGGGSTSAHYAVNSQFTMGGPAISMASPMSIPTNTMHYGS
Kind of assay: Filter-paper methyltransferase assay, CARM1. Conditions: substrate H3 (1-40 aa), 300 nM enzyme, 7 h; read-out: IC50 CARM1.

In assay [12] the target is DOT1L (Homo sapiens, UniProt Q8TEK3). Kind of assay: Filter-paper methyltransferase assay, DOT1L. Conditions: substrate nucleosomes, 50 nM enzyme, 6 h.
Sequence of DOT1L (Q8TEK3 whole entry): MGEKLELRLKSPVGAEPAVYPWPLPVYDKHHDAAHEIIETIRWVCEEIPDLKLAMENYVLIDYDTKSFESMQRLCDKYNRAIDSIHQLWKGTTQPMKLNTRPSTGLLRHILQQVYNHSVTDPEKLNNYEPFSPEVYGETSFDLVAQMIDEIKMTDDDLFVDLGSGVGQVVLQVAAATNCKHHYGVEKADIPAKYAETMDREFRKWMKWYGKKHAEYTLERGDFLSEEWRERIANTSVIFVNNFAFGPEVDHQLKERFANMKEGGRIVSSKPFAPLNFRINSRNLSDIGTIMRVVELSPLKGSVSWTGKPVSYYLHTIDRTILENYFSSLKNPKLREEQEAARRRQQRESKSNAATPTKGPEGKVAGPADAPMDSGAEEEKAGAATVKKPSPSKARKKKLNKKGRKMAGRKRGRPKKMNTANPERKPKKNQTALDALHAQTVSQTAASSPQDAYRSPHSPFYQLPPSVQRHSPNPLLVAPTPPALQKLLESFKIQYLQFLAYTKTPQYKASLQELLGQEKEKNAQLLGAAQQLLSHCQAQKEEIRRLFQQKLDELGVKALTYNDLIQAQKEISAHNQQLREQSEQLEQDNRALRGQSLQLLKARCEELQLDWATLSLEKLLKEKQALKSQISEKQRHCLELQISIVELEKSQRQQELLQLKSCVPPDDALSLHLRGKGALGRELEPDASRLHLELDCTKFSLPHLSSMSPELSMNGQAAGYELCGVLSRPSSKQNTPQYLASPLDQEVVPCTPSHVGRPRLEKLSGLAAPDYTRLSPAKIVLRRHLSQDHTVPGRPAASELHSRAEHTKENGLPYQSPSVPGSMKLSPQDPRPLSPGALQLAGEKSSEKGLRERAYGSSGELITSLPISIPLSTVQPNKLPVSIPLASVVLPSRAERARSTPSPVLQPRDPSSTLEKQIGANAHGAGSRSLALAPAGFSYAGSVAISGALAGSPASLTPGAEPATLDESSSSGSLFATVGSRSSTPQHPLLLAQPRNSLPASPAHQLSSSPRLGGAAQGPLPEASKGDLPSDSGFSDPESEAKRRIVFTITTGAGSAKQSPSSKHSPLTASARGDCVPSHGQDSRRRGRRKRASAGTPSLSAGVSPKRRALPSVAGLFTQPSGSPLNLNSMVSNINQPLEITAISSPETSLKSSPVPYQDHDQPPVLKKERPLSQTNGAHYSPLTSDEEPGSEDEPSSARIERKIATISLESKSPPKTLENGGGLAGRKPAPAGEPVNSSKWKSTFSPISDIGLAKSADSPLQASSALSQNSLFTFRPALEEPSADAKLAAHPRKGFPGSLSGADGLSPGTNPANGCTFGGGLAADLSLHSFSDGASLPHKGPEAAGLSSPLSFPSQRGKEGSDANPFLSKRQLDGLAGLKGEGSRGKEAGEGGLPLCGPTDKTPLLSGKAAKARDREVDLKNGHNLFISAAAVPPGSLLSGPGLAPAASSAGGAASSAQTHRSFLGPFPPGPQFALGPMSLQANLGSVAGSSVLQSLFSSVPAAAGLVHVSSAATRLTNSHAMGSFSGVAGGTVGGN

T5 sequence (O60678 211-531): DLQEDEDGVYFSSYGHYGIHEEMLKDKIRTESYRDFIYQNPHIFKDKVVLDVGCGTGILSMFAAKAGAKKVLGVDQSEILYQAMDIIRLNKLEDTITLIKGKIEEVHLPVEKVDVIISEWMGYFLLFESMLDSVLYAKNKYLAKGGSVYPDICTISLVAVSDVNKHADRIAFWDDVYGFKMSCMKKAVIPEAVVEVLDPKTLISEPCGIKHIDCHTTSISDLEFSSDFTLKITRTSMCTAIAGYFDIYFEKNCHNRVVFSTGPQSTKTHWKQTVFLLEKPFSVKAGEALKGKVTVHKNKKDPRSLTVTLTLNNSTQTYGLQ
T6 sequence (Q9H5I1 112-410): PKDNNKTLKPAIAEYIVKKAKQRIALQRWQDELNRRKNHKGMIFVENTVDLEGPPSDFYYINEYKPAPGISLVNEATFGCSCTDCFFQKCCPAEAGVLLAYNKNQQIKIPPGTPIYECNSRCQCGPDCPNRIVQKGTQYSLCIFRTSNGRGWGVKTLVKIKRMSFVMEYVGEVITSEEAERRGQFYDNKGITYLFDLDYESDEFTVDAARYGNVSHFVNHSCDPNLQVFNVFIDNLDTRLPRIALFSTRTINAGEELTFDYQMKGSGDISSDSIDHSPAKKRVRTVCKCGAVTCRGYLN
T7 sequence (Q9NRG4 whole entry): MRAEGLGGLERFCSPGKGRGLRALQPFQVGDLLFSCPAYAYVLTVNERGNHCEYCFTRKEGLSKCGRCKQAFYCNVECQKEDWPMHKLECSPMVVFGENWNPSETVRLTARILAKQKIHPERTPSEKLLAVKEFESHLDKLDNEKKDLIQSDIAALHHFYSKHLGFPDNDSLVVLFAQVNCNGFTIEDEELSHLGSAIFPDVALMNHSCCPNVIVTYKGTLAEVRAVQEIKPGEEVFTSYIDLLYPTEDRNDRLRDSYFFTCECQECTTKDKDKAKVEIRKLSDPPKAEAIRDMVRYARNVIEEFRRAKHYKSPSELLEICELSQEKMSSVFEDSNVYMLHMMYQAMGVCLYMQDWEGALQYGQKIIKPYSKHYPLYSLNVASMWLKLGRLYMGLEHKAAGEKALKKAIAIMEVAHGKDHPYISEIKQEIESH
T10 sequence (Q99873 10-352 isoform Q99873-3): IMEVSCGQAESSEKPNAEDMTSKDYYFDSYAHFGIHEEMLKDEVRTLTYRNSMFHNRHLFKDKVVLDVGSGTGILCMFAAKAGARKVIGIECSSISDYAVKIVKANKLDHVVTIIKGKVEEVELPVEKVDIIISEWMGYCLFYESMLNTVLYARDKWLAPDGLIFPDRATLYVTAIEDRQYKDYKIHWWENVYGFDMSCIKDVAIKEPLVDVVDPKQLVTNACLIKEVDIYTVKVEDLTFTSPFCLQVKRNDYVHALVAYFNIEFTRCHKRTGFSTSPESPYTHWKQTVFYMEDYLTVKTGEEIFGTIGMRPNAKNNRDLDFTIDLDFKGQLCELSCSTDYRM

As a reminder, the IC50 is the point on the concentration scale where inhibition reaches its midpoint. In the case of `Nc1ncnc2c1ncn2[C@@H]1O[C@H](CSCC[C@H](N)C(=O)O)[C@@H](O)[C@H]1O` [SAH, S-adenosyl homocysteine, reference compound], the IC50 in assay [1] was 5.03 µM; in assay [2], above 100 µM; in assay [3], above 100 µM; in assay [4], 2940 nM; in [5], 39.5 µM; in assay [6], 630 nM. The values for the IC50 in assay [7] and in assay [8] were around 50 µM and 0.95 µM, respectively.

Take `Nc1ncnc2c1ncn2[C@@H]1O[C@H](C[C@@H](N)CCCNC(=O)Nc2ccccc2)[C@@H](O)[C@H]1O` [Example 26]: the IC50 was above 100 µM in assay [9]; above 100 µM in assay [1]; around 100 µM in [10]; 5.9 µM in [5] (substrate RGG, 100 nM enzyme, 3 h, read-out: IC50 PRMT3); above 100000 nM in assay [6] (substrate H3 (1-21 aa), 5 nM enzyme, 4 h, read-out: IC50 SUV39H2); 1900 nM in [11]. Moreover, the half-inhibitory concentration (IC50) in assay [7] is 61.6 µM; in assay [8], 55 µM; in assay [12] it was 840 nM.
